The NIST ThermoML archive (doi:10.1021/je0600808)
± gives the expanded uncertainty stated by the source.

Experiments:
[1] = 101.33 kPa, Liquid
[2] = xn = mol fraction of the nth substance listed; conditions: 101 kPa, Liquid

CCCO [propan-1-ol]
[1]
Conditions | mass density [kg/m3] | viscosity [mPa·s]
293.15 K | 803.62 ± 1.8 | 2.238 ± 0.026
298.15 K | 799.41 ± 1.8 | 1.981 ± 0.023
303.15 K | 795.27 ± 1.8 | 1.745 ± 0.021
313.15 K | 786.62 ± 1.9 | 1.381 ± 0.017
323.15 K | 773.91 ± 1.9 | 1.115 ± 0.014
333.15 K | 767.31 ± 2 | 0.907 ± 0.012
343.15 K | 755.95 ± 2.1 | 0.742 ± 0.011
353.15 K | 748.41 ± 2.1 | 0.615 ± 0.01
363.15 K | 739.7 ± 2.2 | 0.515 ± 0.009

CCCCO [butan-1-ol]
[1]
Conditions | mass density [kg/m3] | viscosity [mPa·s]
293.15 K | 809.82 ± 3.4 | 2.963 ± 0.035
298.15 K | 806.06 ± 3.5 | 2.619 ± 0.031
303.15 K | 802.03 ± 3.5 | 2.298 ± 0.027
313.15 K | 793.29 ± 3.6 | 1.786 ± 0.022
323.15 K | 786.55 ± 3.7 | 1.421 ± 0.018
333.15 K | 777.81 ± 3.9 | 1.137 ± 0.015
343.15 K | 767.03 ± 4 | 0.92 ± 0.013
353.15 K | 757.52 ± 4.1 | 0.759 ± 0.011
363.15 K | 749.38 ± 4.2 | 0.63 ± 0.01

CCCCCO [pentan-1-ol]
[1]
Conditions | mass density [kg/m3] | viscosity [mPa·s]
293.15 K | 814.51 ± 1.7 | 4.117 ± 0.049
298.15 K | 810.73 ± 1.7 | 3.556 ± 0.043
303.15 K | 806.77 ± 1.8 | 3.06 ± 0.037
313.15 K | 799.05 ± 1.8 | 2.332 ± 0.029
323.15 K | 789.81 ± 1.9 | 1.822 ± 0.023
333.15 K | 781.81 ± 1.9 | 1.44 ± 0.018
343.15 K | 772.84 ± 2 | 1.146 ± 0.015
353.15 K | 764.79 ± 2 | 0.931 ± 0.013
363.15 K | 757.17 ± 2.1 | 0.767 ± 0.011

CCOC(=O)OCC [diethyl carbonate] + CCCO
[2]
Conditions | mass density, x1 = 0.0993 [kg/m3] | mass density, x1 = 0.2003 [kg/m3] | mass density, x1 = 0.3011 [kg/m3] | viscosity, x1 = 0.0993 [mPa·s] | viscosity, x1 = 0.2003 [mPa·s] | viscosity, x1 = 0.3011 [mPa·s]
293.15 K | 829.06 ± 1.6 | 852 ± 1.4 | 872.49 ± 1.3 | 1.668 ± 0.02 | 1.347 ± 0.016 | 1.147 ± 0.014
298.15 K | 824.24 ± 1.6 | 846.98 ± 1.5 | 867.35 ± 1.3 | 1.49 ± 0.018 | 1.211 ± 0.015 | 1.037 ± 0.013
303.15 K | 819.57 ± 1.6 | 841.86 ± 1.5 | 861.83 ± 1.4 | 1.328 ± 0.016 | 1.089 ± 0.014 | 0.938 ± 0.012
313.15 K | 810.34 ± 1.7 | 832.49 ± 1.6 | 852.34 ± 1.4 | 1.073 ± 0.014 | 0.896 ± 0.012 | 0.783 ± 0.011
323.15 K | 798.04 ± 1.8 | 819.74 ± 1.6 | 839.43 ± 1.5 | 0.887 ± 0.012 | 0.751 ± 0.011 | 0.666 ± 0.01
333.15 K | 790.59 ± 1.8 | 811.83 ± 1.7 | 831 ± 1.6 | 0.739 ± 0.011 | 0.636 ± 0.01 | 0.572 ± 0.009
343.15 K | 778.86 ± 1.9 | 799.8 ± 1.8 | 818.79 ± 1.6 | 0.618 ± 0.01 | 0.542 ± 0.009 | 0.493 ± 0.009
353.15 K | 770.55 ± 1.9 | 790.85 ± 1.8 | 809.27 ± 1.7 | 0.524 ± 0.009 | 0.466 ± 0.009 | 0.43 ± 0.008
363.15 K | 761.19 ± 2 | 780.98 ± 1.9 | 799 ± 1.8 | 0.448 ± 0.008 | 0.405 ± 0.008 | 0.378 ± 0.008

CCOC(=O)OCC [diethyl carbonate] + CCCCCO
[2]
Conditions | mass density, x1 = 0.1016 [kg/m3] | mass density, x1 = 0.2056 [kg/m3] | mass density, x1 = 0.2991 [kg/m3] | viscosity, x1 = 0.1016 [mPa·s] | viscosity, x1 = 0.2056 [mPa·s] | viscosity, x1 = 0.2991 [mPa·s]
293.15 K | 831.8 ± 1.6 | 849.16 ± 1.5 | 864.58 ± 1.4 | 2.879 ± 0.035 | 2.155 ± 0.026 | 1.735 ± 0.021
298.15 K | 827.59 ± 1.6 | 844.75 ± 1.5 | 859.91 ± 1.4 | 2.522 ± 0.031 | 1.907 ± 0.023 | 1.549 ± 0.019
303.15 K | 823.06 ± 1.6 | 840.03 ± 1.5 | 854.97 ± 1.4 | 2.206 ± 0.027 | 1.69 ± 0.021 | 1.386 ± 0.017
313.15 K | 814.72 ± 1.7 | 831.26 ± 1.6 | 845.78 ± 1.5 | 1.723 ± 0.021 | 1.351 ± 0.017 | 1.132 ± 0.015
323.15 K | 805.16 ± 1.8 | 821.48 ± 1.6 | 835.87 ± 1.6 | 1.383 ± 0.017 | 1.109 ± 0.014 | 0.939 ± 0.013
333.15 K | 796.72 ± 1.8 | 812.44 ± 1.7 | 826.67 ± 1.6 | 1.122 ± 0.015 | 0.918 ± 0.013 | 0.79 ± 0.011
343.15 K | 787.31 ± 1.9 | 802.62 ± 1.8 | 816.48 ± 1.7 | 0.919 ± 0.013 | 0.766 ± 0.011 | 0.67 ± 0.01
353.15 K | 778.85 ± 1.9 | 793.74 ± 1.8 | 807.26 ± 1.7 | 0.764 ± 0.011 | 0.65 ± 0.01 | 0.576 ± 0.01
363.15 K | 770.78 ± 2 | 785.19 ± 1.9 | 798.3 ± 1.8 | 0.644 ± 0.01 | 0.557 ± 0.009 | 0.501 ± 0.009

CCOC(=O)OCC [diethyl carbonate] + CCCCO
[2]
Conditions | mass density, x1 = 0.1016 [kg/m3] | mass density, x1 = 0.2023 [kg/m3] | mass density, x1 = 0.2974 [kg/m3] | viscosity, x1 = 0.1016 [mPa·s] | viscosity, x1 = 0.2023 [mPa·s] | viscosity, x1 = 0.2974 [mPa·s]
293.15 K | 830.56 ± 1.6 | 849.89 ± 1.5 | 867.23 ± 1.4 | 2.161 ± 0.026 | 1.681 ± 0.02 | 1.38 ± 0.02
298.15 K | 826.34 ± 1.6 | 845.4 ± 1.5 | 862.6 ± 1.4 | 1.909 ± 0.023 | 1.504 ± 0.018 | 1.254 ± 0.016
303.15 K | 821.75 ± 1.6 | 840.53 ± 1.5 | 857.48 ± 1.4 | 1.685 ± 0.02 | 1.339 ± 0.017 | 1.13 ± 0.014
313.15 K | 812.55 ± 1.7 | 831.22 ± 1.6 | 847.88 ± 1.5 | 1.345 ± 0.017 | 1.091 ± 0.014 | 0.932 ± 0.013
323.15 K | 804.95 ± 1.7 | 822.83 ± 1.6 | 838.91 ± 1.5 | 1.097 ± 0.014 | 0.906 ± 0.012 | 0.785 ± 0.011
333.15 K | 795.85 ± 1.8 | 813.37 ± 1.7 | 829.07 ± 1.6 | 0.904 ± 0.012 | 0.761 ± 0.011 | 0.668 ± 0.01
343.15 K | 784.94 ± 1.9 | 802.09 ± 1.8 | 817.6 ± 1.7 | 0.749 ± 0.011 | 0.642 ± 0.01 | 0.572 ± 0.009
353.15 K | 775.15 ± 1.9 | 792.01 ± 1.8 | 807.21 ± 1.7 | 0.63 ± 0.01 | 0.549 ± 0.009 | 0.496 ± 0.009
363.15 K | 766.42 ± 2 | 782.78 ± 1.9 | 797.61 ± 1.8 | 0.536 ± 0.009 | 0.475 ± 0.009 | 0.434 ± 0.008

CCOC(=O)OCC [diethyl carbonate]
[1]
Conditions | mass density [kg/m3] | viscosity [mPa·s]
293.15 K | 975 ± 1.3 | 0.8 ± 0.011
298.15 K | 968.97 ± 1.4 | 0.746 ± 0.011
303.15 K | 962.39 ± 1.5 | 0.695 ± 0.01
313.15 K | 952.32 ± 1.6 | 0.61 ± 0.01
323.15 K | 939.78 ± 1.8 | 0.541 ± 0.009
333.15 K | 928.69 ± 1.9 | 0.483 ± 0.009
343.15 K | 916.33 ± 2.1 | 0.435 ± 0.008
353.15 K | 905.02 ± 2.2 | 0.393 ± 0.008
363.15 K | 893.71 ± 2.4 | 0.358 ± 0.008
